# Literature values as cited in US20240131116A1, “METHODS AND THREAPEUTIC COMBINATIONS FOR TREATING IDIOPATHIC INTRACRANIAL HYPERTENSION AND CLUSTER HEADACHES” (NBO PHARMA LLC, priority 2021, published 2024).
# Key:
# [1] = human, in vivo
# [2] = all patients treated
# IIH [3] = test system: IIH
# IIH [4] = conditions: for most frequent / most common side effects / visual field grades: topiramate 100 to 150 mg daily, acetazolamide 1000 to 1500 mg/day
# [5] = in vivo
compound,measurement,setting,value
"NS(=O)(=O)c1ccc(N2CCCCS2(=O)=O)cc1 [sulthiame, p-(tetrahydro-2H-1,2-thiazin-2-yl)benzenesulfonamide, S,S-dioxide]",patients with gastric complaints,[1],about 10%
"CC(=O)Nc1nnc(S(N)(=O)=O)s1 [acetazolamide, N-(5-sulfamoyl-1,3,4-thiadiazol-2-yl) acetamide]",patients who discontinued treatment due to adverse events,[2],Up to 20%
same,"vision (perimetric mean deviation, papilledema grade, vision-related quality of life) versus placebo",IIH [3]; maximum tolerated dose of up to 4 g/day,improved vision
same,adverse events significantly more frequent than in placebo group,IIH [3]; up to 4 g/day,"paresthesia, dysgeusia, fatigue, decreased carbon dioxide level, nausea, vomiting, diarrhea, and tinnitus"
same,most frequent / most common side effects,IIH [4],fatigue and tingling of the hands and feet
same,visual field grades,IIH [4],Significant improvement
L-alanyl-glycyl-L-cysteinyl-L-lysyl-L-asparagyl-L-phenylalanyl-L-phenylalanyl-L-tryptophyl-L-lysyl-L-threonyl-L-phenylalanyl-L-threonyl-L-seryl-L-cysteine (3->14)-disulfide [somatostatin],biological half-life,[5],2-3 minutes
"CC1(C)O[C@@H]2[C@@H](CO[C@@]3(COS(N)(=O)=O)OC(C)(C)O[C@@H]23)O1 [topiramate, 2,3:4,5-bis-O-(1-methylethylidene)-beta-D-fructopyranose sulfamate]","weight loss, mean",IIH [4]; during 12 months period,9.75 kg
same,most frequent / most common side effects,IIH [4],"distal paresthesias, concentration difficulties and weight loss"
same,visual field grades,IIH [4],Significant improvement
